Measurements from PMC12339163, “Combining Plant Bioactives With Antibiotics for Enhanced Antibiofilm Activity Against Uropathogenic Staphylococcus spp. and Cytotoxicity Evaluation” (Advances in Pharmacological and Pharmaceutical Sciences, 2025).
Values after ≈ are worked out from the molar mass of the structure shown. Like-named read-outs stand apart in the source and are kept apart here.

Experiments:
S. aureus = assay: MIC and MBC, broth microdilution; assay type: cell-based, Staphylococcus aureus; settings: geometric mean, S. aureus (n = 3)
Description: (§1) Seven clinical isolates of Staphylococcus spp. including 2 S. aureus, 3 S. saprophyticus, and 2 S. epidermidis were used. They were isolated from urine samples in our previous study. Two reference strains (S. aureus ATCC1026 and S. epidermidis ATCC35984) obtained from the American Type Culture Collection were also included. They were kept in the mixture of glycerol and Mueller Hinton Broth (MHB) (1:1) at −20°C, and the activation was achieved using the streak technique on Mueller Hinton agar (MHA) medium.
(§2) The MICs of ATBs and NPs were determined by the broth microdilution method as previously described. NPs and ATBs were, respectively, prepared at 4096 µg/mL and 512 µg/mL and serially diluted twofold with MHB in a 96-well microplate at a volume of 100 µL. Then, the wells were filled with 100 µL of inoculum (1.5 × 10^6 CFU/mL) to give final concentrations ranging from 1024 µg/mL to 0.5 µg/mL and 128 µg/mL to 0.062 µg/mL of NPs and ATBs, respectively. The microplates were incubated for 24 h at 37°C. Wells containing only bacterial inoculum were used as the negative control. After incubation, a volume of 40 µL of INT solution (0.2 mg/mL) was added to each well, and the microplate was incubated at 37°C for 30 min. Viable bacteria cells change the yellow dye of INT to a pink color. The MIC was considered as the lowest concentration of the sample at which there was no change in the coloration of the medium, corresponding to the complete inhibition of microbial growth.
(§3) All tests were performed in triplicate.

S. epidermidis biofilm [1] = assay: Biofilm inhibition assay (MBIC, MTT); assay type: cell-based, Staphylococcus epidermidis; settings: geometric mean, S. epidermidis (n = 3); for minimal effective concentration: Staphylococcus epidermidis, 24 h
Description: (§4) The biofilm formation inhibitory activity of NPs and ATBs was carried out according to the method previously described. A total of 100 µL of bacterial inoculum (1.5 × 10^6 CFU/mL) was used, and 100 µL of each sample was added to the microplate to achieve final concentrations ranging from 0.25 µg/mL to 128 µg/mL for ATBs and from 8 µg/mL to 1024 µg/mL for NPs. Then, the microplate was incubated at 37°C for 24 h. After incubation, the plates were gently emptied and washed three times with a phosphate buffer solution at pH 7.2. Then, the MTT solution (0.5 mg/mL) prepared in PBS was introduced into each well, and the microplate was further incubated at 37°C for 24 h. Untreated wells containing bacterial suspension and MHB supplemented with 1% glucose were considered positive controls, and wells containing only MHB+1% glucose without bacteria were used as blanks. After incubation, the MTT solution was aspirated, then 150 µL of DMSO was introduced to dissolve the formazan crystal formed by viable bacteria, and the optical density (OD) was measured at 570 nm using a microplate reader (VERSA-max). The percentage of biofilm inhibition was calculated using the formula below, and the minimal biofilm inhibitory concentration (MBIC) was recorded as the lowest concentration of NPs or ATBs that inhibited 100% of biofilm:(1) % biofilm inhibition=ODcontrol−ODblank−ODtest−ODblank/ODcontrol−ODblank×100.

S. aureus biofilm = assay: Biofilm inhibition assay (MBIC, MTT); assay type: cell-based, Staphylococcus aureus; settings: geometric mean, S. aureus (n = 3); for minimal effective concentration: Staphylococcus aureus, 24 h
Description: as §4

S. saprophyticus = assay: MIC and MBC, broth microdilution; assay type: cell-based, Staphylococcus saprophyticus; settings: geometric mean, S. saprophyticus (n = 3)
Description: as §1, §2, §3

S. epidermidis biofilm [2] = assay: Biofilm eradication assay (MBEC, MTT); assay type: cell-based, Staphylococcus epidermidis; settings: geometric mean, S. epidermidis (n = 3); for minimal effective concentration: Staphylococcus epidermidis, 24 h
Description: (§5) The determination of the biofilm eradication potential of NPs and ATBs was performed as previously described. Briefly, 100 µL of bacterial inoculum (1.5 × 10^6 CFU/mL) and 100 µL of MHB + 1% glucose were introduced into the microplate, incubated at 37°C for 24 h, and the microplate was gently emptied and washed three times with PBS. Then, 200 µL of ATBs or NPs at respective concentrations ranging from 8 to 1024 µg/mL and from 16 to 2048 µg/mL were incubated at 37°C for 24 h. Once incubation was completed, the microplate was processed as described above, and the percentage of biofilm eradication was calculated using the formula below. The minimal biofilm eradicating concentration (MBEC) was recorded as the lowest concentration of the test sample that reduces 100% of biofilm:(2) % biofilm eradication=ODcontrol−ODblank−ODtest−ODblank/ODcontrol−ODblank×100.

S. saprophyticus biofilm [3] = assay: Biofilm eradication assay (MBEC, MTT); assay type: cell-based, Staphylococcus saprophyticus; settings: geometric mean, S. saprophyticus (n = 3); for minimal effective concentration: Staphylococcus saprophyticus, 24 h
Description: as §5

[4] = test system: planktonic cells of Staphylococcus aureus; assay: Checkerboard combination assay, planktonic cells; assay type: cell-based; settings: S. aureus, mean; for MIC: Staphylococcus aureus
Description: (§6) The checkerboard assay, as previously described, was used for the determination of the fractional inhibitory concentration index (FICI). Briefly, 50 µL of MHB was distributed into each well of a 96-well microplate. ATBs were serially diluted along the abscissa, and NPs were serially diluted along the ordinate. Then, 100 µL of bacterial inoculum (1.5 × 10^6 CFU/mL) was added to each well and incubated at 37°C for 24 h. The final concentration ranged from 0.125 to 128 µg/mL for ATBs and 4–512 µg/mL for NPs. After incubation, a volume of 40 µL of INT solution (0.2 mg/mL) was added to each well, and the microplate was incubated at 37°C for 30 min. The wells containing bacterial inoculum and MHB were used as a positive control, while wells containing only MHB + 1% glucose were used as a negative control and used as a blank. Viable bacteria cells change the yellow dye of INT to a pink color. The MICs were considered to be the lowest NP concentrations that prevented the color change medium. Subsequently, the FICI was calculated according to the formula FICI = (MIC of the ATBs in combination/MIC of the ATBs alone) + (MIC of a natural substance in combination/MIC of the natural substance alone). FICI values were interpreted as follows: synergy when FICI ≤ 0.5; additive when 0.5 < FICI ≤ 1; indifference when 1 < FICI ≤ 4; and antagonism when FICI > 4.

[5] = test system: planktonic cells of Staphylococcus saprophyticus; assay: Checkerboard combination assay, planktonic cells; assay type: cell-based; settings: S. saprophyticus, mean; for MIC: Staphylococcus saprophyticus
Description: as §6

S. saprophyticus biofilm [6] = assay: Biofilm inhibition assay (MBIC, MTT); assay type: cell-based, Staphylococcus saprophyticus; settings: geometric mean, S. saprophyticus (n = 3); for minimal effective concentration: Staphylococcus saprophyticus, 24 h
Description: as §4

[7] = Staphylococcus aureus, antibiotics, read-out: MBC
[8] = Staphylococcus aureus, read-out: MIC
[9] = Staphylococcus saprophyticus, antibiotics, read-out: MBC
[10] = Staphylococcus saprophyticus, read-out: MIC
[11] = Staphylococcus aureus, natural products, read-out: MBC
[12] = Staphylococcus saprophyticus, natural products, read-out: MBC

MIC ([4]; 24 h, read-out: MIC alone, ATB)	MIC ([4]; read-out: MIC alone, ATB)	MIC ([5]; 24 h, read-out: MIC alone, ATB)	MIC ([5]; read-out: MIC alone, ATB)	SMILES	MBC (S. aureus; [7])	MIC (S. aureus; [8])	minimal effective concentration (S. epidermidis biofilm [1])	minimal effective concentration (S. aureus biofilm)	MBC (S. saprophyticus; [9])	MIC (S. saprophyticus; [10])	minimal effective concentration (S. epidermidis biofilm [2])	minimal effective concentration (S. saprophyticus biofilm [3])	minimal effective concentration (S. saprophyticus biofilm [6])	MBC (S. aureus; [11])	MBC (S. saprophyticus; [12])	MIC ([4]; 24 h, read-out: MIC alone, NPs)	MIC ([4]; read-out: MIC alone, NPs)	MIC ([5]; 24 h, read-out: MIC alone, NPs)	MIC ([5]; read-out: MIC alone, NPs)	further results
4.33 mg/L	4.33 mg/L	22 mg/L	22 mg/L	NCC[C@H](O)C(=O)N[C@@H]1C[C@H](N)[C@@H](O[C@H]2O[C@H](CN)[C@@H](O)[C@H](O)[C@H]2O)[C@H](O)[C@H]1O[C@H]1O[C@H](CO)[C@@H](O)[C@H](N)[C@H]1O [Amikacin, amikacin]	> 128 mg/L	4.33 mg/L (≈ 7.39 µM)	3.08 µg/mL	1.83 µg/mL	> 128 mg/L	22 mg/L (≈ 37.6 µM)	21.3 µg/mL	13.3 µg/mL	2.08 µg/mL							
				O=c1c(O)c(-c2ccc(O)c(O)c2)oc2cc(O)cc(O)c12 [Quercetin, quercetin]		341 mg/L (≈ 1130 µM)	512 µg/mL	512 µg/mL		341 mg/L (≈ 1130 µM)	299 µg/mL	171 µg/mL	427 µg/mL	> 1020 mg/L	> 1020 mg/L	427 mg/L	341 mg/L	427 mg/L	427 mg/L	MIC alone, NPs ([5]; listed as Que): 341.33 mg/L
				CC1=CC(=O)c2c(O)cccc2C1=O [Plumbagin, plumbagin]		6 mg/L (≈ 31.9 µM)	8 µg/mL	10.7 µg/mL		8.66 mg/L (≈ 46 µM)	10.7 µg/mL	10.7 µg/mL	6.66 µg/mL	> 1020 mg/L	> 1020 mg/L	4.66 mg/L	4.66 mg/L	8.66 mg/L	8.33 mg/L	
				NC[C@H]1O[C@H](O[C@H]2[C@H](O)[C@@H](O[C@H]3O[C@H](CO)[C@@H](O)[C@H](N)[C@H]3O)[C@H](N)C[C@@H]2N)[C@H](O)[C@@H](O)[C@@H]1O [Kanamycin, kanamycin]																MBC (S. aureus; antibiotics): 69.33 mg/L (≈ 143 µM); MIC (S. aureus): 22.66 mg/L (≈ 46.8 µM); MBIC (S. epidermidis biofilm [1]): 24.66 µg/mL; MBIC (S. aureus biofilm): 1.08 µg/mL; MBC (S. saprophyticus; antibiotics): — (> 128 µg/mL for ATBs); MIC (S. saprophyticus): 14 mg/L (≈ 28.9 µM); MBEC (S. epidermidis biofilm [2]): 13.33 µg/mL; MBEC (S. saprophyticus biofilm [3]): 10.66 µg/mL; MIC alone, ATB [4]: 22.66 mg/L; MIC alone, ATB [5]: 14 mg/L; MBIC (S. saprophyticus biofilm [6]): 4.08 µg/mL
108 mg/L	108 mg/L	4.66 mg/L	4.66 mg/L	CC[C@H]1OC(=O)[C@H](C)[C@@H](O[C@H]2C[C@@](C)(OC)[C@@H](O)[C@H](C)O2)[C@H](C)[C@@H](O[C@@H]2O[C@H](C)C[C@H](N(C)C)[C@H]2O)[C@](C)(O)C[C@@H](C)C(=O)[C@H](C)[C@@H](O)[C@]1(C)O [Erythromycin, erythromycin]	> 128 mg/L	108 mg/L (≈ 147 µM)	24 µg/mL	42.8 µg/mL	> 128 mg/L	4.66 mg/L (≈ 6.35 µM)	18.7 µg/mL	29.3 µg/mL	27.3 µg/mL							
